From EP4818185A1, “CRYSTAL FORMS OF 20(S)-PROTOPANAXADIOL, PREPARATION METHOD THEREFOR AND USE THEREOF” (Shanghai Baocheng Tailai Technology Co., Ltd., priority 2023, dated 2025)
Values after ≈ are worked out from the molar mass of the structure shown. Values joined by “and” are separate entries in the source; they are usually repeats but may differ in a detail not shown here. Identical values can stand only once.

Columns and labels:
[1] = Repose angle test (funnel, cone); format: physicochemical; details: for Average repose angle (°): average of three parallel tests; for Repose angle (°): single tests No. 1-3, calculated from cone height and diameter
Description: An appropriate amount of each test sample was taken. A funnel was fixed on an iron stand and positioned perpendicularly to the tabletop. The crystal form A and crystal form B samples were added into the funnel, respectively, allowing the sample to freely fall to form a cone. The height and diameter of the cone were measured to calculate the repose angle. Three parallel tests were performed. […]

[2] = Solid-state stability test (XRPD crystal form, HPLC purity); format: physicochemical; details: for crystal form transformation (XRPD): under three conditions: 80°C sealed 1 day, 25°C/60% RH and 40°C/75% RH open 1 month
Description: An appropriate amount of each test sample was weighed, and subjected to stability tests under the following conditions: sealed storage at 80°C for 1 day, and open storage at 25°C/60% RH and 40°C/75% RH for 1 month, respectively. Solid samples separated under different conditions were subjected to XRPD to measure crystal form to evaluate physical stability, and HPLC to measure chemical purity to evaluate chemical stability. […]

[3] = Hygroscopicity test (dynamic vapor sorption, DVS); format: physicochemical; details: for Hygroscopic weight gain at 25°C/80% RH (%): DVS; for hygroscopicity: class per Chinese Pharmacopoeia 2020 edition definition
Description: The dynamic vapor sorption-desorption (DVS) curves of each sample were tested and plotted, respectively, and the experimental results are shown in table 5, wherein, the DVS profile of the crystal form A in Example 2 is shown in figure 7, the DVS profile of the crystal form B in Example 5 is shown in figure 8, and the DVS profile of the crude 20(S)-protopanaxadiol in Example 1 is shown in figure 9.
Regarding the description of hygroscopicity characteristics and the definition of hygroscopic weight gain (Guidelines for Hygroscopicity Test of Drugs, Chinese Pharmacopoeia 2020 Edition): • Deliquescent: Absorbing sufficient moisture to form a liquid • Highly hygroscopic: Hygroscopic weight gain of not less than 15% • Hygroscopic: Hygroscopic weight gain of less than 15% but not less than 2% • Slightly hygroscopic: Hygroscopic weight gain of less than 2% but not less than 0.2% • Non-hygroscopic or almost non-hygroscopic: Hygroscopic weight gain of less than 0.2%.

[4] = Mechanical stability test (grinding, tableting); format: physicochemical; details: for crystal form after grinding: manually ground in agate mortar for about 3 minutes; for crystal form after tableting / crystallinity degree after tableting: tableting under a pressure of 200 MPa
Description: An appropriate amount of each test sample was taken, placed respectively in an agate mortar, and manually ground for about 3 minutes, then, the crystal form was measured.
An appropriate amount of each test sample was taken, and added respectively into a tablet press. The crystal form was measured after tableting under a pressure of 200 MPa.

[5] = physchem
Description: (§1) 50 mg of each test sample was weighed, and a suspension was prepared using 5.0 mL of purified water, pH 1 buffer, SGF (simulated gastric fluid), FaSSIF (fasted state simulated intestinal fluid), and FeSSIF (fed state simulated intestinal fluid), respectively. After equilibration at 37°C for 1 hour, 2 hours, 4 hours, and 24 hours, filtration was performed to obtain clear solutions. The content of the sample in the saturated solution was measured by HPLC.

[6] = Solubility test (suspension equilibrated at 37°C, content by HPLC); details: for Solubility, FaSSIF: FaSSIF (fasted state simulated intestinal fluid); for Solubility, FaSSIF / Solubility, SGF: 37°C; for Solubility, SGF: SGF (simulated gastric fluid); for 24-hour solubility relative to LOQ: purified water and pH 1 buffer medium
Description: as §1

[7] = Bulk density and tap density test; format: physicochemical; details: for Average bulk density / Average tap density: average of three parallel tests; for Average tap density: tapped 200 times; for Bulk density: single tests No. 1-3, approx. 800 mg in 5 mL graduated cylinder; for Tap density: single tests No. 1-3, tapped 200 times
Description: Approximately 800 mg of each test sample was taken, and added into a 5 mL graduated cylinder, respectively, and the volume at this point was recorded. The graduated cylinder was lightly tapped against the tabletop 200 times, and the volume at this point was recorded. Three parallel tests were performed.

[8] = Initial (baseline of stability test)

Row | Compound | Average repose angle (°) [1] [°] | Repose angle (°) [1] | Crystal form change ([2]; 25°C/60% RH/open/1 month) | Purity (area%) ([2]; 25°C/60% RH/open/1 month) | Crystal form change ([2]; 40°C/75% RH/open/1 month) | Purity (area%) ([2]; 40°C/75% RH/open/1 month) | Crystal form change ([2]; 80°C/sealed/1 day) | Purity (area%) ([2]; 80°C/sealed/1 day) | Purity (area%) [2, 8] [area%] | crystal form transformation (XRPD) [2] | Hygroscopic weight gain at 25°C/80% RH (%) [3] [%] | Crystal form change after DVS test [3] | hygroscopicity [3] | crystal form after grinding [4] | crystal form after tableting [4] | Solubility, FaSSIF ([6]; 1 hour, 60 min) [µg/mL] | Solubility, FaSSIF ([6]; 24 hours, 1440 min) [µg/mL] | solubility in SGF, comparison among crystal forms [6] | Average bulk density [7] [g/mL] | Average tap density [7] [g/mL] | other results
1 | CC(C)=CCC[C@](C)(O)[C@H]1CC[C@]2(C)[C@@H]1[C@H](O)C[C@@H]1[C@@]3(C)CC[C@H](O)C(C)(C)[C@@H]3CC[C@]12C [Crystal form A, 20(S)-protopanaxadiol] | 20.5 | 21.2 ° and 19.0 ° and 21.4 ° | No | 97.20 | No | 97.18 | No | 97.20 | 97.21 | did not undergo crystal form transformation | 0.5763 | Unchanged | slight hygroscopicity | transformed into amorphous form | did not undergo crystal form transformation | 70 (≈ 152 µM) | 120 (≈ 260 µM) | no significant difference | 0.43 | 0.52 | chemical purity (HPLC) after storage ([2]; under three conditions): did not show a significant decrease; solubility at 2 h ([5]; fassif): 73 µg/mL (≈ 158 µM); solubility at 4 h ([5]; fassif): 72 µg/mL (≈ 156 µM); solubility at 4 h ([5]; ph 1 buffer, pH 1): 0.11 µg/mL (≈ 0.239 µM); solubility at 24 h ([5]; ph 1 buffer, pH 1): 0.15 µg/mL (≈ 0.326 µM); solubility at 1 h ([5]; sgf (simulated gastric fluid)): 20 µg/mL (≈ 43.4 µM); solubility at 2 h ([5]; sgf (simulated gastric fluid)): 21 µg/mL (≈ 45.6 µM); solubility at 4 h ([5]; sgf (simulated gastric fluid)): 17 µg/mL (≈ 36.9 µM); solubility at 24 h ([5]; sgf (simulated gastric fluid)): 11 µg/mL (≈ 23.9 µM); solubility at 24 h ([5]; water): 0.13 µg/mL (≈ 0.282 µM); solubility at 24 h ([5]; water and ph 1 buffer, pH 1): 0.13 to 0.15 µg/mL (≈ 0.282 to 0.326 µM); solubility in FaSSIF, comparison with crystal form B [6]: higher than that of the crystal form B; Bulk density [7]: 0.44 g/mL and 0.46 g/mL and 0.40 g/mL; Tap density [7]: 0.48 g/mL and 0.56 g/mL and 0.51 g/mL
2 | CC(C)=CCC[C@](C)(O)[C@H]1CC[C@]2(C)[C@@H]1[C@H](O)C[C@@H]1[C@@]3(C)CC[C@H](O)C(C)(C)[C@@H]3CC[C@]12C [Crystal form B, 20(S)-protopanaxadiol] | 24.2 | 25.0 ° and 24.7 ° and 22.8 ° | No | 97.17 | No | 97.15 | No | 97.18 | 97.20 | did not undergo crystal form transformation | 0.2227 | Unchanged | slight hygroscopicity | transformed into amorphous form | did not undergo crystal form transformation | 34 (≈ 73.8 µM) | 42 (≈ 91.2 µM) | no significant difference | 0.21 | 0.25 | chemical purity (HPLC) after storage ([2]; under three conditions): did not show a significant decrease; crystallinity degree after tableting [4]: decreased; Solubility, FaSSIF ([6]; 2 hours, 120 min): 39 µg/mL (≈ 84.6 µM); Solubility, FaSSIF ([6]; 4 hours, 240 min): 42 µg/mL (≈ 91.2 µM); Solubility, SGF ([6]; 1 hour, 60 min): 18 µg/mL (≈ 39.1 µM); Solubility, SGF ([6]; 2 hours, 120 min): 19 µg/mL (≈ 41.2 µM); Solubility, SGF ([6]; 4 hours, 240 min): 18 µg/mL (≈ 39.1 µM); Solubility, SGF ([6]; 24 hours, 1440 min): 16 µg/mL (≈ 34.7 µM); 24-hour solubility relative to LOQ ([6]; 24 hours): lower than LOQ; Bulk density [7]: 0.22 g/mL and 0.21 g/mL; Tap density [7]: 0.25 g/mL and 0.24 g/mL and 0.26 g/mL
3 | CC(C)=CCC[C@](C)(O)[C@H]1CC[C@]2(C)[C@@H]1[C@H](O)C[C@@H]1[C@@]3(C)CC[C@H](O)C(C)(C)[C@@H]3CC[C@]12C [Crystal form D, 20(S)-protopanaxadiol] | 36.8 | 36.7 ° and 38.2 ° and 35.5 ° | No | 93.75 | No | 93.00 | No | 94.04 | 96.01 | did not undergo crystal form transformation | 0.3863 | Unchanged | slight hygroscopicity | transformed into amorphous form | did not undergo crystal form transformation | 110 (≈ 239 µM) | 100 (≈ 217 µM) | no significant difference | 0.14 | 0.21 | chemical purity (HPLC) after storage ([2]; open storage at 25°C/60% RH and 40°C/75% RH for 1 month): slightly decreased; purity (HPLC) after storage ([2]; sealed storage at 80°C for 1 day): slightly decreased; crystallinity degree after tableting [4]: decreased; solubility at 2 h ([5]; water): 0.13 µg/mL (≈ 0.282 µM); Solubility, FaSSIF ([6]; 2 hours, 120 min): 72 µg/mL (≈ 156 µM); Solubility, FaSSIF ([6]; 4 hours, 240 min): 82 µg/mL (≈ 178 µM); Solubility, SGF ([6]; 1 hour, 60 min): 21 µg/mL (≈ 45.6 µM); Solubility, SGF ([6]; 2 hours, 120 min): 17 µg/mL (≈ 36.9 µM); Solubility, SGF ([6]; 4 hours, 240 min): 16 µg/mL (≈ 34.7 µM); Solubility, SGF ([6]; 24 hours, 1440 min): 14 µg/mL (≈ 30.4 µM); solubility in FaSSIF, comparison with crystal form B [6]: higher than that of the crystal form B; 24-hour solubility relative to LOQ ([6]; 24 hours): lower than LOQ; Bulk density [7]: 0.14 g/mL; Tap density [7]: 0.21 g/mL and 0.20 g/mL
